According to patent US10526337B2, “Heteroaryl derivative or pharmaceutically acceptable salt thereof, preparation method therefor, and pharmaceutical composition for preventing or treating diseases associated with PI3 kinases, containing same as active ingredient” (KOREA RESEARCH INSTITUTE OF CHEMICAL TECHNOLOGY, priority 2015, dated 2020):

What was measured:
Conditions in all cases: ATP=10 uM, sample concentration=100 nM
[1] = biological target: T1, PI3 Kinase (p110α/p85α) (h) (Homo sapiens, UniProt P42336); experiment: Inhibition of phosphatidylinositol 3-kinase alpha (PI3K α), pAkt Western blotting in EGF-stimulated MDA-MB-453 cells; assay type: cell-based
T1 construct: endogenous in cells; host or cells: MDA-MB-453
Method: The inhibition of phosphatidylinositol 3 kinase alpha (PI3K α) by those compounds prepared in Examples 1˜98 was investigated by the following experiment. The inhibition activity of each compound was measured in the following conditions: ATP=10 uM, and sample concentration=100 nM.
Human breast cancer cells (MDA-MB-453) cultured in DMEM (Dulbecco's Modified Eagle Medium, Hyclon, SH30243.01) supplemented with 10% fetal bovine serum (Hyclon, USA) were distributed in a 12-well plate at the density of 1,000,000 cells/well. The cells were stabilized in a 37° C. CO2 for 24 hours and then treated with each compound for 1 and half hours. The cells were treated with 10 ng/mL of EGF (Epidermal Growth Factor, 10 μg/mL; R&D, 2150-C5) to increase the intracellular activity of PI3K alpha. 5 minutes later, the medium was discarded and the cells were washed with cold PBS (phosphate buffered saline, Gibco, 14190-250). PBS was then eliminated completely by using a pipette. Western blotting was performed as described in step 2 to evaluate the intracellular PI3K alpha activity.
(§1) The stimulated cells were transferred in a 1.5 mL tube, followed by centrifugation at 3000 rpm for 1 minute. 100 μL of RIPA buffer (radioimmunoprecipitation assay buffer, 50 mM Tris-HCl, 5 mM EDTA, 150 mM NaCl, 1% NP-40, 1 mM PMSF, pH 8.0; ELPIS, Korea) was added thereto, which was stored in a 4° C. refrigerator for 12 hours. Centrifugation was performed at 4° C. at 14,000 rpm for 20 minutes. The supernatant was transferred into a new 1.5 mL tube. Protein was quantified by BCA (bicinchoninic acid) method and samples were prepared. The composition of the sample was as follows: sample buffer (ELPIS, EBA-1052) 5×, protein 10 μg, and 1× sample buffer to make the total volume 20 μL. The sample was heated at 100° C. for 5 minutes. The evaporated water vapor was condensed in a refrigerator. The liquid stained on the wall was fallen down by centrifugation for a few seconds. The sample proceeded to 10% SDS (Sodium Dodecyl Sulfate) acrylamide gel for separation. The separated protein was transferred onto PVDF (poly-vinyl difluoride) membrane, followed by reaction with pAkt (phospho protein kinase B) antibody (Ser473 or Thr308; Cell signaling, 9271s or 13038s) for 12 hours at 4° C. The membrane was washed with TBST (Tris-Buffered Saline with Tween 20, 10 mM Tris-HCl, pH 7.5, 150 mM NaCl, 0.1% Tween-20) three times for 5 minutes each, to which the secondary antibody (rabbit antibody, Santacruz, sc-2004) was added, followed by reaction at room temperature for 2 hours. The membrane was washed with TBST three times for 10 minutes each, to which ECL (enhanced chemiluminescence, Thermo, NCI34095KR) was sprayed. Bands were investigated by using LAS-3000.

[2] = biological target: T2, PI3 Kinase (p110β/p86α) (h) (Homo sapiens, UniProt P42338); experiment: Inhibition of phosphatidylinositol 3-kinase beta (PI3K β), pAkt Western blotting in LPA-stimulated PC3 cells; assay type: cell-based
T2 construct: endogenous in cells; host or cells: PC3
Method: as §1
The inhibition of phosphatidylinositol 3 kinase beta (PI3K β) by those compounds prepared in Examples 1˜98 was investigated by the following experiment. The inhibition activity of each compound was measured in the following conditions: ATP=10 uM, and sample concentration=100 nM.
Human prostate cancer cells (PC3 cells) cultured in DMEM (Dulbecco's Modified Eagle Medium, Hyclon, SH30243.01) supplemented with 10% fetal bovine serum (Hyclon, USA) were distributed in a 12-well plate at the density of 1,000,000 cells/well. The cells were stabilized in a 37° C. CO2 for 24 hours and then treated with each compound for 1 and half hours. The cells were treated with 10 ng/mL of LPA (lysophosphatidic acid, 10 μg/mL; R&D, 2150-05) to increase the intracellular activity of PI3K beta. 5 minutes later, the medium was discarded and the cells were washed with cold PBS (phosphate buffered saline, Gibco, 14190-250). PBS was then eliminated completely by using a pipette. Western blotting was performed according to the same manner as described in step 2 of Experimental Example 1 to evaluate the intracellular PI3K beta activity.

PI3 Kinase (p120γ) (h) = biological target: T3, PI3 Kinase (p120γ) (h) (Homo sapiens, UniProt P48736); experiment: Inhibition of phosphatidylinositol 3-kinase gamma (PI3K γ), pAkt Western blotting in C5a-stimulated RAW264.7 macrophages; assay type: cell-based, mouse
T3 construct: endogenous in cells; host or cells: RAW264.7
Procedure, shortened: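 Enzyme: PI3Kγ activity measured at ATP=10 uM with compound at 100 nM. Cellular: RAW264.7 macrophages treated with compound 1.5 h, then stimulated with 10 ng/mL C5a for 5 min; lysates (10 μg protein) probed by Western blot for pAkt (Ser473 or Thr308), ECL detection.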

[3] = biological target: T4, PI3 Kinase (p110δ/p85α) (h) (Homo sapiens, UniProt O00329); experiment: Inhibition of phosphatidylinositol 3-kinase delta (PI3K δ), pAkt Western blotting in IgM-stimulated Raji cells; assay type: cell-based
T4 construct: endogenous in cells; host or cells: Raji
Procedure, shortened: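 Raji cells were treated with compound for 1.5 h, then stimulated with 0.25 μg/mL IgM for 30 min to activate PI3Kδ. Lysates were Western blotted for pAkt (Ser473 or Thr308) with ECL detection. Conditions stated: ATP=10 uM, sample concentration=100 nM.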

T3 sequence (P48736 whole entry): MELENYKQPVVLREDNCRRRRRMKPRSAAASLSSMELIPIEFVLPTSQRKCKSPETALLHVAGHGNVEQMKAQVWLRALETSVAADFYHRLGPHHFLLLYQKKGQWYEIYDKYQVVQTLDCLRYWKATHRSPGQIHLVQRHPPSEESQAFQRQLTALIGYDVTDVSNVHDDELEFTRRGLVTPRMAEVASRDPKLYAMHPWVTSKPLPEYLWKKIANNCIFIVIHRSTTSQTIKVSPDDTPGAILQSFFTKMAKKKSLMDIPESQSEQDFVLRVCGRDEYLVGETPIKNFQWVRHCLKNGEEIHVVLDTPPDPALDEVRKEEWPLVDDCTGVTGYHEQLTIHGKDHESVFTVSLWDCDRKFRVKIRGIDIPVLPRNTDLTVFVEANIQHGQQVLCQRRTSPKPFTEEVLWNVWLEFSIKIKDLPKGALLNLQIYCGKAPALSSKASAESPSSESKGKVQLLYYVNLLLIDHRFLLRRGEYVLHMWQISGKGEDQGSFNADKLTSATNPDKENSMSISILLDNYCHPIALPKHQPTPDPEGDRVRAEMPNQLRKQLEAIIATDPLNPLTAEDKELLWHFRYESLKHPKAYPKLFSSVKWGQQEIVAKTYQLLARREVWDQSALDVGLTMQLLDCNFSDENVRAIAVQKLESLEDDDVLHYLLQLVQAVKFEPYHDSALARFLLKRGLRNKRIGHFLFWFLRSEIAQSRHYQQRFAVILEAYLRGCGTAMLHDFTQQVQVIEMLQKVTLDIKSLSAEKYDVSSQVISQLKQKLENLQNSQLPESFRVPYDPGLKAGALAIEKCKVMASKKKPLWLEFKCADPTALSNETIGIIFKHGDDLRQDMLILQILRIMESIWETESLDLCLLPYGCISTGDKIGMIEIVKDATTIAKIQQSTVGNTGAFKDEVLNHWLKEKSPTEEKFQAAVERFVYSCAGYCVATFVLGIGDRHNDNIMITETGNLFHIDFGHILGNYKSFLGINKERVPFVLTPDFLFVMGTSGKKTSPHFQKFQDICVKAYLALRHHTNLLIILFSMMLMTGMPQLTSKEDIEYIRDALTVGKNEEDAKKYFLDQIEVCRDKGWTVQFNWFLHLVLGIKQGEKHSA
T4 sequence (O00329 whole entry): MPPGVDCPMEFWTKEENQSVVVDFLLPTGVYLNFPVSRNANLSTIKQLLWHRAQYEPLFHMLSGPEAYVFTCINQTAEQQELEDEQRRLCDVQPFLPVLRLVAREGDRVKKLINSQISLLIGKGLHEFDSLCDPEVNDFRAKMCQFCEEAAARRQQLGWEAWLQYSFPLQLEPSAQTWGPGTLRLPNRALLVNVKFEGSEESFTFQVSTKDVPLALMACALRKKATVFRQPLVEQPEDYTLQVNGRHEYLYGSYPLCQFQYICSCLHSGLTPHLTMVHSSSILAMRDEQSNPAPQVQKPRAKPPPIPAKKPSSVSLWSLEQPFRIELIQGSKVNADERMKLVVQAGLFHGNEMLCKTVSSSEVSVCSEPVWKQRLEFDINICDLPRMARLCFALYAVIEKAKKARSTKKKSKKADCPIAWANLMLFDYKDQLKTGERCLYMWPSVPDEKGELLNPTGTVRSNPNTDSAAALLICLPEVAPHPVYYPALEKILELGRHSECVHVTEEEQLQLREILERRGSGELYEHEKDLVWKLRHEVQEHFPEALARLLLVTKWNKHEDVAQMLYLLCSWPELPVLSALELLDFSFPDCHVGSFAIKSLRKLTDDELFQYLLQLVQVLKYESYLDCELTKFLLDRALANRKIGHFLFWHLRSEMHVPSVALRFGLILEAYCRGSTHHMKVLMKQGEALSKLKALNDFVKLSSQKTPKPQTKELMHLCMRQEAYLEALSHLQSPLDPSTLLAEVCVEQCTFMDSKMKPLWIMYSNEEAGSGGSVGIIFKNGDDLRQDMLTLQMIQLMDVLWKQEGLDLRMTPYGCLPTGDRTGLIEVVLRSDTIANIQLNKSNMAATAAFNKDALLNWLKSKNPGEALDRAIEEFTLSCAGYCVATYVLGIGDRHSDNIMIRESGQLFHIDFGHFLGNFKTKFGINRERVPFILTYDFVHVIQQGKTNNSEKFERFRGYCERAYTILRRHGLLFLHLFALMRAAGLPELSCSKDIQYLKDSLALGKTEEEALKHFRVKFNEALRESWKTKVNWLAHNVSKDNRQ
T4 sequence (P27986 whole entry partner): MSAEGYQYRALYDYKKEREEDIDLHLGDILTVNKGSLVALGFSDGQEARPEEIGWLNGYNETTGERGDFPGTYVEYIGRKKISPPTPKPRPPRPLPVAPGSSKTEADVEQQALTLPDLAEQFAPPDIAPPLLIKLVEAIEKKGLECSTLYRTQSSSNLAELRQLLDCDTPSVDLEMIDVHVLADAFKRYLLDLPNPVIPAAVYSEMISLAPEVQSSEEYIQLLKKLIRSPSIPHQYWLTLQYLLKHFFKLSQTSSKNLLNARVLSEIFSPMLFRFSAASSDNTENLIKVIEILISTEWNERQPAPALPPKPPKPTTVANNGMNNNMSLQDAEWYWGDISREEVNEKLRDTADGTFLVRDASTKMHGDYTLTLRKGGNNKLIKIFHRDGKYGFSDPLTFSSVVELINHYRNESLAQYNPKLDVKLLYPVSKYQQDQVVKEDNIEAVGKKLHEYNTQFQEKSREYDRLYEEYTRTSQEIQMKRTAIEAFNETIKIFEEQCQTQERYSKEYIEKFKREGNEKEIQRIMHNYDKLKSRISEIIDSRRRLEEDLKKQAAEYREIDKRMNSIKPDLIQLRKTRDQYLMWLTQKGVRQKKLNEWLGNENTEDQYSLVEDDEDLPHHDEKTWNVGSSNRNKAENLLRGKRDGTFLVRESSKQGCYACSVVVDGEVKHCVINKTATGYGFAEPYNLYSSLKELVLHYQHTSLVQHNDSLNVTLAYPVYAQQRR
T2 sequence (P42338 whole entry): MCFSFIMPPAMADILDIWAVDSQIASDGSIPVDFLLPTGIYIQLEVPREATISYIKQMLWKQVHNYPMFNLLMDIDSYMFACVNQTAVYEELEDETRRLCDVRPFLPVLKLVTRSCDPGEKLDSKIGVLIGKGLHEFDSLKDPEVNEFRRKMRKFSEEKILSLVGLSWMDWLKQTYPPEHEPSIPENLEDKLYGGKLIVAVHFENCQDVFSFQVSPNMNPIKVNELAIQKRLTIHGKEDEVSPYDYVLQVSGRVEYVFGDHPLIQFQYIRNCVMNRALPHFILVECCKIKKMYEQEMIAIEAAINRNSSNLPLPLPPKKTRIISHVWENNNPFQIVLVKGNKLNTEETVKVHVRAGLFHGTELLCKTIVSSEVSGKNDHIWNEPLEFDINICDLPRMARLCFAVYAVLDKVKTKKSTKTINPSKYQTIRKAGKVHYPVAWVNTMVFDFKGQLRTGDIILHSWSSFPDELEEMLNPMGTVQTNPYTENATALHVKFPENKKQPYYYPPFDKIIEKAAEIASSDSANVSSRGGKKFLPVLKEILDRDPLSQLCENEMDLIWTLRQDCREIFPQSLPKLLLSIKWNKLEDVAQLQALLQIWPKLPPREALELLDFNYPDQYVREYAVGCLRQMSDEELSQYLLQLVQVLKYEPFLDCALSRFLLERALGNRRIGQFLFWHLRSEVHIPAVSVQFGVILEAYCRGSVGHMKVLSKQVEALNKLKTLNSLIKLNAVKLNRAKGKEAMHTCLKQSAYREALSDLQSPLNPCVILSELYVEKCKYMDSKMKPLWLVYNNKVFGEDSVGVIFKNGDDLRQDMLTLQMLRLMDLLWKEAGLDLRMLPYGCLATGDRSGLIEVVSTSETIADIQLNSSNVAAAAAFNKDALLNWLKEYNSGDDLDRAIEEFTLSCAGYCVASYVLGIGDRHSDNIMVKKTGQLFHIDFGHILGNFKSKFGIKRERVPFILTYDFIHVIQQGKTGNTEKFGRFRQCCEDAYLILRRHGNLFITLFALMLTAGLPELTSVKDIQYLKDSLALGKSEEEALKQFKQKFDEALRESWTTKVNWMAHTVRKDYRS
T2 sequence (P27986 whole entry partner): as the sequence (P27986 whole entry partner) above

IC50 [1] [nM]	IC50 [2] [nM]	IC50 (PI3 Kinase (p120γ) (h)) [nM]	IC50 [3] [nM]	Compound
> 500	> 500	10 to 500	10 to 500	C[C@H](Nc1ncnc2[nH]cc(Cl)c(=O)c12)c1c(Cl)c2cccc(Cl)c2c(=O)n1-c1ccccc1 [Example 24, (S)-6-chloro-4-((1-(4,8-dichloro-1-oxo-2-phenyl-1,2-dihydroisoquinoline-3-yl)ethyl)amino)pyrido[2,3-d]pyrimidine-5(8H)-one]
> 500	10 to 500	10 to 500	< 10	C[C@H](Nc1ncnc2c1C(=O)CCN2)c1c(Cl)c2cccc(Cl)c2c(=O)n1-c1ccccc1 [Example 98, (S)-4-((1-(4,8-dichloro-1-oxo-2-phenyl-1,2-dihydroisoquinoline-3-yl)ethyl)amino)-7,8-dihydropyrido[2,3-d]pyrimidine-5(6H)-one]
> 500	> 500	> 500	> 500	O=c1nc[nH]c2ncnc(N3CCC[C@H]3c3nn4ccc(Cl)c4c(=O)n3-c3ccccc3)c12 [Example 79, (S)-5-(2-(5-chloro-4-oxo-3-phenyl-3,4-dihydropyrrolo[2,1-f][1,2,4]triazine-2-yl)pyrrolidine-1-yl)pyrimido[4,5-d]pyrimidine-4(1H)-one]
> 500	> 500	10 to 500	< 10	C[C@H](Nc1ncnc2[nH]ccc(=O)c12)c1nc2ccc(F)cc2c(=O)n1-c1cccc(F)c1 [Example 30, (S)-4-((1-(6-fluoro-3-(3-fluorophenyl)-4-oxo-3,4-dihydroquinazoline-2-yl)ethyl)amino)pyrido[2,3-d]pyrimidine-5(8H)-one]
> 500	> 500	10 to 500	< 10	C[C@H](Nc1ncnc2[nH]ccc(=O)c12)c1c(F)c2cccc(Cl)c2c(=O)n1-c1ccccc1 [Example 11, (S)-4-((1-(8-chloro-4-fluoro-1-oxo-2-phenyl-1,2-dihydroisoquinoline-3-yl)ethyl)amino)pyrido[2,3-d]pyrimidine-5(8H)-one]
> 500	> 500	10 to 500	< 10	C[C@H](Nc1ncnc2[nH]cc(F)c(=O)c12)c1cc2cccc(Cl)c2c(=O)n1-c1ccccc1 [Example 20, (S)-4-((1-(8-chloro-1-oxo-2-phenyl-1,2-dihydroisoquinoline-3-yl)ethyl)amino)-6-fluoropyrido[2,3-d]pyrimidine-5(8H)-one]
> 500	> 500	> 500	10 to 500	CC(Nc1ncnc2[nH]ccc(=O)c12)c1nc2ccc(F)cc2c(-c2ccccn2)c1-c1ccccn1 (centres unmarked) [Example 26, 4-((1-(6-fluoro-3,4-di(pyridine-2-yl)quinoline-2-yl)ethyl)amino)pyrido[2,3-d]pyrimidine-5(8H)-one]
> 500	> 500	10 to 500	< 10	C[C@H](Nc1ncnc2[nH]ccc(=O)c12)c1cc2ccc(F)cc2nc1-c1cccc(F)c1 [Example 8, (S)-4-((1-(7-fluoro-2-(3-fluorophenyl)quinoline-3-yl)ethyl)amino)pyrido[2,3-d]pyrimidine-5(8H)-one]
> 500	> 500	10 to 500	< 10	C[C@H](Nc1ncnc2[nH]ccc(=O)c12)c1nc2cccc(Cl)c2c(=O)n1-c1ccccn1 [Example 3, (S)-4-((1-(5-chloro-4-oxo-3-(pyridine-2-yl)-3,4-dihydroquinazoline-2-yl)ethyl)amino)pyrido[2,3-d]pyrimidine-5(8H)-one]
> 500	> 500	10 to 500	< 10	C[C@H](Nc1ncnc2[nH]ccc(=O)c12)c1cc2ccccc2nc1-c1ccccc1 [Example 6, (S)-4-((1-(2-phenylquinoline-3-yl)ethyl)amino)pyrido[2,3-d]pyrimidine-5(8H)-one]
> 500	> 500	10 to 500	< 10	C[C@H](Nc1ncnc2[nH]ccc(=O)c12)c1c(Cl)c2cccc(Cl)c2c(=O)n1-c1ccccc1 [Example 10, (S)-4-((1-(4,8-dichloro-1-oxo-2-phenyl-1,2-dihydroisoquinoline-3-yl)ethyl)amino)pyrido[2,3-d]pyrimidine-5(8H)-one]
> 500	> 500	10 to 500	< 10	CC(Nc1ncnc2[nH]ccc(=O)c12)c1nc2cccc(Cl)c2cc1-c1ccccn1 (centres unmarked) [Example 33, 4-((1-(5-chloro-3-(pyridine-2-yl)quinoline-2-yl)ethyl)amino)pyrido[2,3-d]pyrimidine-5(8H)-one]
> 500	> 500	10 to 500	< 10	CC[C@H](Nc1ncnc2[nH]ccc(=O)c12)c1nc2cccc(F)c2c(=O)n1-c1ccccc1 [Example 12, (S)-4-((1-(5-fluoro-4-oxo-3-phenyl-3,4-dihydroquinazoline-2-yl)propyl)amino)pyrido[2,3-d]pyrimidine-5(8H)-one]
> 500	> 500	10 to 500	< 10	C[C@H](Nc1ncnc2[nH]ccc(=O)c12)c1nc2cccc(Cl)c2c(=O)n1-c1cccnc1 [Example 2, (S)-4-((1-(5-chloro-4-oxo-3-(pyridine-3-yl)-3,4-dihydroquinazoline-2-yl)ethyl)amino)pyrido[2,3-d]pyrimidine-5(8H)-one]
10 to 500	10 to 500	10 to 500	< 10	Cc1c[nH]c2nc(N)nc(N[C@@H](C)c3cc4cccc(Cl)c4c(=O)n3-c3ccccc3)c2c1=O [Example 18, (S)-2-amino-4-((1-(8-chloro-1-oxo-2-phenyl-1,2-dihydroisoquinoline-3-yl)ethyl)amino)-6-methylpyrido[2,3-d]pyrimidine-5(8H)-one]
> 500	> 500	10 to 500	10 to 500	C[C@H](Nc1nc(N)nc2[nH]cnc(=O)c12)c1cc2cccc(Cl)c2c(=O)n1-c1ccccc1 [Example 85, (S)-7-amino-5-(1-(8-chloro-1-oxo-2-phenyl-1,2-dihydroisoquinoline-3-yl)ethylamino)pyrimido[4,5-d]pyrimidine-4(1H)-one]
> 500	> 500	10 to 500	10 to 500	CCN1CNc2ncnc(N[C@@H](C)c3cc4cccc(Cl)c4c(=O)n3-c3ccccc3)c2C1=O [Example 60, (S)-5-(1-(8-chloro-1-oxo-2-phenyl-1,2-dihydroisoquinoline-3-yl)ethylamino)-3-ethyl-2,3-dihydropyrimido[4,5-d]pyrimidine-4(1H)-one]
